Experimental findings from ChEMBL document CHEMBL2429742, “Design, synthesis, and biological evaluation of novel 3-pyrrolo[b]cyclohexylene-2-dihydroindolinone derivatives as potent receptor tyrosine kinase inhibitors” (Bioorg Med Chem Lett, 2013) are described below.

Data set [1] deals with Mast/stem cell growth factor receptor Kit (Homo sapiens, UniProt P10721).
Data set [2] addresses Platelet-derived growth factor receptor beta (Homo sapiens, UniProt P09619).
The target in data set [3] is Vascular endothelial growth factor receptor 2 (Homo sapiens, UniProt P35968).
Sequence of Vascular endothelial growth factor receptor 2 (P35968 whole entry): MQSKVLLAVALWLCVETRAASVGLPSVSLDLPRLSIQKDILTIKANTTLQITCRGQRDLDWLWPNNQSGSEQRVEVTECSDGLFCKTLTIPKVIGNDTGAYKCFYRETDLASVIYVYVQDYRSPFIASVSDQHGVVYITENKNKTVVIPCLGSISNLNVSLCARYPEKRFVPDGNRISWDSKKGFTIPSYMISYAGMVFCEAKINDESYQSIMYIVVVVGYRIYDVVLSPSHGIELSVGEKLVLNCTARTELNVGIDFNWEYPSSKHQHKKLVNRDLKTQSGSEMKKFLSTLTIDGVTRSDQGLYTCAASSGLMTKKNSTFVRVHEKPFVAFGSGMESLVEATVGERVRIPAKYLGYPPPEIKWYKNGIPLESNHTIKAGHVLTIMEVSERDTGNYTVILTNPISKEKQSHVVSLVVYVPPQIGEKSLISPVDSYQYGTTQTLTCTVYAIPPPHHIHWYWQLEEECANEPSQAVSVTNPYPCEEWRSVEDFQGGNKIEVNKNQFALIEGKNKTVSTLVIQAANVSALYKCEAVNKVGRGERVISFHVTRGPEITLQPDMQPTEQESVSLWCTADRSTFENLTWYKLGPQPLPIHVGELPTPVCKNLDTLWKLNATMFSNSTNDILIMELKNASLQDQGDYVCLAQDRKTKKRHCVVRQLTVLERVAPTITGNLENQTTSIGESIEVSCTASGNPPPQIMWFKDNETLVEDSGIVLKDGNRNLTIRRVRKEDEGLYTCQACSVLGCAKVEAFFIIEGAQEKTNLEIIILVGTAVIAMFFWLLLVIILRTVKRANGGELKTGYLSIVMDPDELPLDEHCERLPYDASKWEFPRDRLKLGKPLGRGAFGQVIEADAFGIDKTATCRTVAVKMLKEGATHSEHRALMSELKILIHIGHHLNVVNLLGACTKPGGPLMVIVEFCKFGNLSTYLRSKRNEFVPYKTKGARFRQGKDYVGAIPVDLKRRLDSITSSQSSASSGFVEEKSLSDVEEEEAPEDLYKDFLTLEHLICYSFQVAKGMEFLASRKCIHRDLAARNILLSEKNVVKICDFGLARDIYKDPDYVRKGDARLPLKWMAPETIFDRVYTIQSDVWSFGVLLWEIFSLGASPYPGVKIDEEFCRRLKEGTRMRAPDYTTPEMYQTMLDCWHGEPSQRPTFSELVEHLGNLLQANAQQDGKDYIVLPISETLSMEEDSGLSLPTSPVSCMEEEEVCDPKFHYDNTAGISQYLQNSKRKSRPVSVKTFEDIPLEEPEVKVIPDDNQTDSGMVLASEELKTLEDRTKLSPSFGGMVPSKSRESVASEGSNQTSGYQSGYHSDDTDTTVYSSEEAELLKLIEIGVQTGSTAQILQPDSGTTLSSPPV
The test system of data set [4] is BXPC-3. Put plainly: Ratio of sunitinib IC50 to compound IC50 for human BxPC3 cells. It is filed as functional.
Data set [5] relates to T-24. Put plainly: Antiproliferative activity against human T24 cells after 72 hrs by MTT assay. The settings on record: T-24, 72 h. It is filed as functional, cell-based.
The test system of data set [6] is HT-29. The experiment in a line: cells. As to conditions: Homo sapiens, HT-29, 72 h.
A short description of data set [7]: cells. The settings on record: Homo sapiens, BGC, 72 h.
In data set [8] the test system is BXPC-3. The experiment in a line: cells. As to conditions: Homo sapiens, BXPC-3, 72 h.
In data set [9] the test system is HepG2. Put plainly: Antiproliferative activity against human HepG2 cells after 72 hrs by MTT assay. It is filed as functional, cell-based. As to conditions: HepG2, 72 h. For orientation: Tetrazolium dyes change colour on reduction, which living cells bring about.
The target in data set [10] is Vascular endothelial growth factor receptor 3 (Homo sapiens, UniProt P35916). The experiment in a line: Inhibition of VEGFR3 (unknown origin).
In data set [11] the target is Vascular endothelial growth factor receptor 1 (Homo sapiens, UniProt P17948). Put plainly: Inhibition of VEGFR1 (unknown origin).
Sequence of Vascular endothelial growth factor receptor 1 (P17948 whole entry): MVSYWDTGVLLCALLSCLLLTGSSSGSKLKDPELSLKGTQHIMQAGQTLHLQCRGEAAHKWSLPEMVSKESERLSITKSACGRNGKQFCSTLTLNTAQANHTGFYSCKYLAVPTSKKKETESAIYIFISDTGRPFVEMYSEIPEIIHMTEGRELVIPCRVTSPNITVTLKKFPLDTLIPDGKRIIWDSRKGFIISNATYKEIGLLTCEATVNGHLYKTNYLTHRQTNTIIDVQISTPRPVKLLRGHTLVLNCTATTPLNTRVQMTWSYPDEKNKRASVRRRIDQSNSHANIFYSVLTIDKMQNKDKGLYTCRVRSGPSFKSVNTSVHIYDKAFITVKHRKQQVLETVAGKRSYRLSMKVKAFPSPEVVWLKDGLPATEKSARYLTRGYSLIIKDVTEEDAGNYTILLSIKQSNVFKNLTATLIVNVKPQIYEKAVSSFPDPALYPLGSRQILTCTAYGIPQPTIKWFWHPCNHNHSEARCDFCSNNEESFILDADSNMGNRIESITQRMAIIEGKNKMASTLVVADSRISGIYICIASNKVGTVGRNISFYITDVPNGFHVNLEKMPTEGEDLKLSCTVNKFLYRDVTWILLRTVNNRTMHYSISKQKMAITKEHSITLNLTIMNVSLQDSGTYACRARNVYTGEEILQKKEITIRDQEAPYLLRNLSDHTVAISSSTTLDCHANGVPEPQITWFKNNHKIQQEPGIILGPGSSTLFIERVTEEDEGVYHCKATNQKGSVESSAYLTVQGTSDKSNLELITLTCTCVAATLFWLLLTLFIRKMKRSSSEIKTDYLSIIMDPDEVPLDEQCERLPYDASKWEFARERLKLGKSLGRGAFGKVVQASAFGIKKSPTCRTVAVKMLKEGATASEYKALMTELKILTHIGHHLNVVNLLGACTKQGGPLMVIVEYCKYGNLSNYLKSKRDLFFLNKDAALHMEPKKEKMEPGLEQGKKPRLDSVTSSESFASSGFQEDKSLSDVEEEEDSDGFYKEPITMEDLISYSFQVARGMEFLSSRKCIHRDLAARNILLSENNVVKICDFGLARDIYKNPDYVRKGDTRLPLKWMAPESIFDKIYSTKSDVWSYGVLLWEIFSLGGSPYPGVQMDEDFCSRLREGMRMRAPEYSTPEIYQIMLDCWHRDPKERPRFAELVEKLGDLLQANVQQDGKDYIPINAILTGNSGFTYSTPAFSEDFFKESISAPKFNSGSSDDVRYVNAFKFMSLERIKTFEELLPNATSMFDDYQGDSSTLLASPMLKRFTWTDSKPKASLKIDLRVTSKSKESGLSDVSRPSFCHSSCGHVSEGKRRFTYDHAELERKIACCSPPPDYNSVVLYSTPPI
The nature of data set [12]: Oral bioavailability in cynomolgus monkey. The format is ADME, organism-based, Macaca fascicularis. As to conditions: in vivo.

By IC50 is commonly meant the concentration needed to halve the response being measured. Broadly, the bioavailability is the share of a dose that reaches the circulation, judged against a reference dose that is usually intravenous.

Sequence of Platelet-derived growth factor receptor beta (P09619 whole entry): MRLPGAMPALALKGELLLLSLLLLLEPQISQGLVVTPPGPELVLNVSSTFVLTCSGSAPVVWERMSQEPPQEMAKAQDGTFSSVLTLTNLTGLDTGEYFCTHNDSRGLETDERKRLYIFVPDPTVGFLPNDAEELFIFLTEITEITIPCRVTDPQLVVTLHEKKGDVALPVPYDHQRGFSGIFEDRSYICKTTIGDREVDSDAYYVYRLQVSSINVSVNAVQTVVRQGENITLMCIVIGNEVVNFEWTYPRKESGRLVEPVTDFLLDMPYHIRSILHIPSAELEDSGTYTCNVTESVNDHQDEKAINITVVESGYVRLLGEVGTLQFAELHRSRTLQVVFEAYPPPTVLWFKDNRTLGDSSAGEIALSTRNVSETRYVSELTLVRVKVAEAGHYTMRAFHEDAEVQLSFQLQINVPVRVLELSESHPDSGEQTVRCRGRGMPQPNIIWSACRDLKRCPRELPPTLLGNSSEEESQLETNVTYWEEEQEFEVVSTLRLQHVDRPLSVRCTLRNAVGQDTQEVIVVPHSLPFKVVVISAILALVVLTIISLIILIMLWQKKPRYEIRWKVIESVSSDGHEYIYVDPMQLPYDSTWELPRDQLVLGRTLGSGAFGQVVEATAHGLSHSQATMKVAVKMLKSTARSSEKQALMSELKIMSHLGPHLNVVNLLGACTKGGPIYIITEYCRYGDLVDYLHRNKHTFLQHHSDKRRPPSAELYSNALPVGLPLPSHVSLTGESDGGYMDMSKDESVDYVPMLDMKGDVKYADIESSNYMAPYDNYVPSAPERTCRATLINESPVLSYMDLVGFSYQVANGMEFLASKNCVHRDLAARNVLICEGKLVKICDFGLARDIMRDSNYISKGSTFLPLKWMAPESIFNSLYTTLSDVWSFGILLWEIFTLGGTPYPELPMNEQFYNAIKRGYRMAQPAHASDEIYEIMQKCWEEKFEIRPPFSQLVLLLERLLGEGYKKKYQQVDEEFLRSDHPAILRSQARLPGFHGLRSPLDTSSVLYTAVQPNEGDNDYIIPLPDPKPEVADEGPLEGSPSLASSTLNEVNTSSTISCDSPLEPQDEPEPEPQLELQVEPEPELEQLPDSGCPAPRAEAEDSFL
Sequence of Mast/stem cell growth factor receptor Kit (P10721 whole entry): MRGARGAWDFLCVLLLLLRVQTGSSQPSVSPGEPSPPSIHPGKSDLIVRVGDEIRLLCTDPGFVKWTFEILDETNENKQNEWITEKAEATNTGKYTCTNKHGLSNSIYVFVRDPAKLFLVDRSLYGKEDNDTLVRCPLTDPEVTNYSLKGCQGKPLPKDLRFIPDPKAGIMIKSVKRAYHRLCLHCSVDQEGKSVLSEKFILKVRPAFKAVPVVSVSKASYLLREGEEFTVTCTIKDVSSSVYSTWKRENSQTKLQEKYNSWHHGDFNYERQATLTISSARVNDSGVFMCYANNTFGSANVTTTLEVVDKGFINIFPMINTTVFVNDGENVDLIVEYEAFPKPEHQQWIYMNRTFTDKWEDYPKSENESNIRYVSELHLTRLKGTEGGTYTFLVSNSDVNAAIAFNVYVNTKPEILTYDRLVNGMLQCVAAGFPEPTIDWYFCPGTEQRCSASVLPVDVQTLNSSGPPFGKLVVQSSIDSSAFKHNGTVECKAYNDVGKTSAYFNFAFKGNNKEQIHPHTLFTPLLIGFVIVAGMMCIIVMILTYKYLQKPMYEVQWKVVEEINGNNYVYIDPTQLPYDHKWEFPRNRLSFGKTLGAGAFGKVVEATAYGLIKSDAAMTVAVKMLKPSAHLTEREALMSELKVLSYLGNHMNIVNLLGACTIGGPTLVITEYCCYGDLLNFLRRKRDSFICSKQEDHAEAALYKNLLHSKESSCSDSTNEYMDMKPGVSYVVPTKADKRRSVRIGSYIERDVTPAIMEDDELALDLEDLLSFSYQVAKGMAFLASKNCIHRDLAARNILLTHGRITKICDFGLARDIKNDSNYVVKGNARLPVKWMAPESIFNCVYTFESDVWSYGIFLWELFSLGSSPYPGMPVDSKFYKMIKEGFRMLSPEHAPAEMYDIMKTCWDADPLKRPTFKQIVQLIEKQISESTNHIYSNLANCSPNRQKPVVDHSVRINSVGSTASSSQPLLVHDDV

In the case of `CCN(CC)CCNC(=O)c1c(C)[nH]c2c1CCC/C2=C1/C(=O)Nc2ccc(S(=O)(=O)N(CC)CC)cc21`, the results for the IC50 in data set [1], in data set [2] and in data set [3] were 398 nM, 396 nM and 330 nM, respectively.

On to `Cc1[nH]c2c(c1C(=O)NCCc1ccccn1)CCC/C2=C1/C(=O)Nc2ccc(F)cc21`, for which the 50% inhibitory concentration (IC50) was determined as 37.7 nM in data set [1], 161 nM in data set [2] and 11.4 nM in data set [3].

As to `CCN(CC)CCCNC(=O)c1c(C)[nH]c2c1CCC/C2=C1/C(=O)Nc2ccc(F)cc21`, the IC50 was 9.9 nM in data set [1], 21.3 nM in [2] and 2.7 nM in data set [3].

Turning to `Cc1[nH]c2c(c1C(=O)NCCCN1CCOCC1)CCC/C2=C1/C(=O)Nc2ccc(F)cc21`, the results for the IC50 in [1], in data set [2] and in data set [3] were 5.7 nM, 18 nM and 1 nM, respectively.

For `Cc1[nH]c2c(c1C(=O)NCCCN1CCCC1)CCC/C2=C1/C(=O)Nc2ccc(F)cc21`, the IC50 in [1] was 10.7 nM; in data set [2], 64.8 nM; in data set [3], 3.8 nM.

For `CCN(CC)CC(O)CNC(=O)c1c(C)[nH]c2c1CCC/C2=C1/C(=O)Nc2ccc(F)cc21` (configuration not stated), the IC50 in [1] stood at 4.1 nM; in data set [2], 19.3 nM; in data set [3] it was 2.5 nM.

With `Cc1[nH]c2c(c1C(=O)N1CCOCC1)CCC/C2=C1/C(=O)Nc2ccc(F)cc21`, the IC50 came to 2.1 nM in data set [1], 40.1 nM in data set [2] and 1.1 nM in [3].

On to `Cc1[nH]c2c(c1C(=O)N1CCC(N3CCCCC3)CC1)CCC/C2=C1/C(=O)Nc2ccc(F)cc21`, for which the results for the IC50 in data set [1], in data set [2] and in data set [3] were 7.8 nM, 40.7 nM and 8 nM, respectively.

As for `Cc1[nH]c2c(c1C(=O)N1CCC[C@H]1CN1CCCC1)CCC/C2=C1/C(=O)Nc2ccc(F)cc21`, the half-inhibitory concentration (IC50) came out at 8.5 nM in data set [1], 118 nM in data set [2] and 11.8 nM in data set [3].

In the case of `CCN(CC)CCNC(=O)c1c(C)[nH]c2c1CCC/C2=C1/C(=O)Nc2ccc([N+](=O)[O-])cc21`, the results for the IC50 in [1], in data set [2] and in [3] were 6.9 nM, 13.3 nM and 25.7 nM, respectively.

Consider `CCN(CC)CCNC(=O)c1c(C)[nH]c2c1CCC/C2=C1/C(=O)Nc2ccc(C(=O)OC)cc21`, for which the half-maximal inhibitory concentration (IC50) in [1] worked out at 256 nM; in data set [2], 70.3 nM; in [3], 167 nM.

For the molecule `CCN(CC)CCNC(=O)c1c(C)[nH]c2c1CCC/C2=C1/C(=O)Nc2cccc(F)c21`, the IC50 in data set [1] is 43.1 nM; in [2], 62.1 nM; in data set [3], 15 nM.

Take `CCN(CC)CCNC(=O)c1c(C)[nH]c2c1CCC/C2=C1/C(=O)Nc2c(F)cccc21`: the 50% inhibitory concentration (IC50) in data set [1] worked out at 181 nM; in data set [2] it was 260 nM; in data set [3] it was 112 nM.

`Cc1[nH]c2c(c1C(=O)NCCN1CCOCC1)CCC/C2=C1/C(=O)Nc2ccc(F)cc21`: the IC50 is 2 nM in [1], 13.2 nM in [2] and 1.6 nM in data set [3].

As to `Cc1[nH]c2c(c1C(=O)NCCN1CCCCC1)CCC/C2=C1/C(=O)Nc2ccc(F)cc21`, the IC50 in [1] came to 5.8 nM; in [2], 19.4 nM; in [3], 4.3 nM.

As for `Cc1[nH]c2c(c1C(=O)NCCN1CCCC1)CCC/C2=C1/C(=O)Nc2ccc(F)cc21`, the values for the IC50 in [1], in data set [2] and in [3] were 7.4 nM, 41.6 nM and 9.7 nM, respectively.

Consider `Cc1[nH]c2c(c1C(=O)NCCN(C)C)CCC/C2=C1/C(=O)Nc2ccc(F)cc21`, for which the concentration for half-maximal inhibition (IC50) in [1] turned out to be 6.6 nM; in [2], 22.7 nM; in [3] it was 3 nM.

For the molecule `Cc1[nH]c2c(c1C(=O)NCCO)CCC/C2=C1/C(=O)Nc2ccc(F)cc21`, the IC50 in data set [1] is 1.4 nM; in data set [2], 12.7 nM; in data set [3], 1.1 nM.

As to `CCN(CC)CCNC(=O)c1c(C)[nH]c2c1CCC/C2=C1/C(=O)Nc2ccccc21`, in data set [4], the “Ratio IC50” value turned out to be 7. Also, the IC50 was 3560 nM in data set [5]; 540 nM in data set [6]; 89.9 nM in data set [2]; 6.73 µM in data set [7]; 520 nM in [8]; 9.4 nM in [3]. In data set [9], this molecule returned an IC50 of 7.73 µM.

Regarding `CCN(CC)CCNC(=O)c1c(C)[nH]c2c1CCC/C2=C1/C(=O)Nc2ccc(Cl)cc21`, the IC50 in data set [1] worked out at 2.7 nM; in [5], 1830 nM; in data set [6], 6480 nM; in data set [2], 12.1 nM; in data set [7] it was 2.03 µM; in data set [8], 1950 nM. The IC50 amounted to 2.6 nM in data set [3] and 3.14 µM in [9].

For the molecule `CCN(CC)CCNC(=O)c1c(C)[nH]c2c1CCC/C2=C1/C(=O)Nc2ccc(Br)cc21`, the IC50 in data set [1] was found to be 2.3 nM; in data set [2] it was 7.6 nM; in data set [3], 3.9 nM.

With `CCN(CC)CCNC(=O)c1c(C)[nH]c2c1CCC/C2=C1/C(=O)Nc2ccc(C)cc21`, the values for the IC50 in data set [1], in data set [2] and in data set [3] were 4.1 nM, 15.6 nM and 2.3 nM, respectively.

On to `CCN(CC)CCNC(=O)c1c(C)[nH]c2c1CCC/C2=C1/C(=O)Nc2ccc(OC)cc21`, for which the concentration for half-maximal inhibition (IC50) in data set [1] came to 35.5 nM; in [2] it was 101 nM; in [3], 24.6 nM.

Consider `CCN(CC)CCNC(=O)c1c(C)[nH]c(/C=C2\C(=O)Nc3ccc(F)cc32)c1C` [SUNITINIB], for which the half-maximal inhibitory concentration (IC50) stood at 2440 nM in [5]; 1470 nM in data set [6]; 4.78 µM in data set [7]; 3630 nM in data set [8]; 5.61 µM in data set [9].

Consider `CCN(CC)CCNC(=O)c1c(C)[nH]c2c1CCC/C2=C1/C(=O)Nc2ccc(F)cc21` [TAFETINIB], for which the 50% inhibitory concentration (IC50) came to 1.3 nM in [10]; 3310 nM in [5]; 1200 nM in [6]; 1.3 nM in [11]; 6.11 µM in data set [7]; 520 nM in data set [8]. The molecule further displayed an IC50 in data set [9] of 7.27 µM. In addition, the bioavailability in data set [12] was 90%.
